According to patent US20240239759A1, “ISOXAZOLINE COMPOSITIONS AND THEIR USE AS ANTIPARASITICS” (Intervet Inc., priority 2007, published 2024):
Read-outs that look alike come from different tables or passages of the source.

Tests used:
[1] = test system: cat fleas (Ctenocephalides felis); assay: Efficacy of various isoxazolines against cat fleas on mice (Example 3); format: in vivo; details: Ctenocephalides felis, po, mice, oral 20 mg/kg, infested 1 hr after treatment, read-out: Flea inhibition relative to negative control
Procedure: In this experiment, mice were randomly assigned to a treatment group or a negative control (untreated) group. Each group consisted of three mice. The mice in the treatment groups were orally administered 20 mg/kg bodyweight of various isoxazolines dissolved in 7% DMF-premix and 93% purified water (aqua ad injectabilia). The application volume of these treatments was 0.01 mL/g bodyweight. One hour after treatment, each mouse was sedated and generally infested (whole body) with 30 vital, adult fleas (C. felis). To achieve this, the sedated mice were placed into an infestation-jar, and the fleas were placed directly onto the fur. After approximately 30 minutes of feeding, fleas were recovered from the mice. Assessments for inhibition and mortality were conducted 1 hr, 24 hr, and 48 hr after each infestation. The efficacy was calculated as the percentage of inhibited fleas in the treatment groups relative to the negative control group.

[2] = Side effects in dogs (Example 5); format: in vivo; details: beagles; oral 20 mg/kg or topical 200 ppm
Procedure: (§1) On Day Zero, one group of 4 beagles was treated orally with gelatin capsules containing 20 mg/kg body weight of […]. Another group of 4 beagles was treated topically by washing with 2 L of solution containing 200 ppm body weight of […] dissolved in DMF-premix/tap water (1:100, based on volume). Finally, a group of 3 beagles remained untreated as the negative control. Two days before treatment on Day Zero, all the beagles were each infested with approximately 80 unfed adult fleas (C. felis) and approximately 60 unfed adult ticks (R. sanguineus). The parasite burden of each beagle was assessed on Day 2 (approximately 48 hr after the treatment) by removing and counting the fleas and ticks. Fleas and ticks were classified according to vitality (fleas: dead or alive; ticks: dead or alive, and engorged or not engorged). The efficacy was calculated from the mean number of vital fleas and ticks in the treated group (Mt) relative to the mean number of vital fleas and ticks in the untreated control group (Mc) using following formula: […]

[3] = test system: brown dog ticks (R. sanguineus); assay: Efficacy against brown dog ticks on dogs (Example 5); format: in vivo, Rhipicephalus sanguineus; details: beagles, Day 2 (approx. 48 hr after treatment)
Procedure: as §1

cat fleas (C. felis) [4] = assay: Further efficacy study against cat fleas on beagles (Example 6); format: in vivo, Ctenocephalides felis
Procedure: Beagles were randomly assigned to 5 treatment groups of 4 animals each, and one untreated control group of 3 animals.
The dogs were infested with approximately 80 fleas (C. felis) and 60 ticks (R. sanguineus) on Days −2, 7, 14, 21, 28, 35, 42, and 49. Fleas and ticks were counted on Day 2 (approximately 48 h after treatment), as well as Days 9, 16, 23, 30, 37, 44, and 51 (approximately 48 hr after each post-treatment re-infestation) to evaluate the insecticidal and acaricidal activity in the treated groups. In Group B, an additional flea and tick infestation was conducted on Day 56, with a respective flea and tick count on Day 58. In addition to the flea and tick counts, blood samples were collected before the treatments, as well as approximately 2 hr, 4 hr, 8 hr, 24 hr, and 72 hr after the treatment on Day Zero, and then once on each of Days 7, 14, 21, 28, 35, 42, 49, and 56. The concentration of Compound 11-1 in blood plasma was analyzed by HPLC/MS/MS. The LOQ of this method was 5 ng/ml.

[5] = Side effects in mice, mite study (Example 2B); format: in vivo; details: topical 100 ppm, oral or subcutaneous 10 mg/kg, twice 7 days apart
Procedure: The mice were divided into groups of three, and treated topically with 100 ppm body weight, orally with 10 mg/kg body weight, or subcutaneously with 10 mg/kg body weight of Compound 11-1, fipronil (positive control), or nothing (negative control). This treatment was then repeated 7 days later. The infestation rate per mouse (“+”=low infestation rate, “++”=medium infestation rate, “+++”=high infestation rate) was assessed repeatedly on days 1, 6, 9, 13, and 23. Efficacy was defined as the inhibition of the mite infestation rate on treated mice relative to the negative control group.

cat fleas (C. felis) [6] = assay: Efficacy against cat fleas on dogs (Example 5); format: in vivo, Ctenocephalides felis; details: beagles, Day 2 (approx. 48 hr after treatment)
Procedure: as §1

[7] = topical washing with 2 L of 200 ppm solution

## Cc1cc(C2=NOC(c3cc(Cl)cc(Cl)c3)(C(F)(F)F)C2)ccc1C(=O)NCC(=O)NCC(F)(F)F (racemic) [Compound 11-1, 4-[5-(3,5-dichlorophenyl)-5-trifluoromethyl-4,5-dihydroisoxazol-3-yl]-2-methyl-N-[(2,2,2-trifluoro-ethylcarbamoyl)-methyl]-benzamide]
[1]; 1 h, 1 hr after infestation
  pest or weed control at 20 mg/kg: 78.9%
[1]; 24 h, 24 hr after infestation
  pest or weed control at 20 mg/kg: 96.7%
[1]; 48 h, 48 hr after infestation
  pest or weed control at 20 mg/kg: 97.8%
[2]
  Side effects: No side effects were observed
[3]; oral gelatin capsules 20 mg/kg
  Tick efficacy: 100%
[3]; [7]
  Tick efficacy: 100%
Cat fleas (C. felis) [4]; Group A: 1 mg/kg oral tablet, Day 2
  Efficacy against cat fleas: 100
Cat fleas (C. felis) [4]; Group A: 1 mg/kg oral tablet, Day 9
  Efficacy against cat fleas: 100
Cat fleas (C. felis) [4]; Group A: 1 mg/kg oral tablet, Day 16
  Efficacy against cat fleas: 100
Cat fleas (C. felis) [4]; Group A: 1 mg/kg oral tablet, Day 23
  Efficacy against cat fleas: 100
Cat fleas (C. felis) [4]; Group A: 1 mg/kg oral tablet, Day 30
  Efficacy against cat fleas: 100
Cat fleas (C. felis) [4]; Group A: 1 mg/kg oral tablet, Day 37
  Efficacy against cat fleas: 99.6
Cat fleas (C. felis) [4]; Group A: 1 mg/kg oral tablet, Day 44
  Efficacy against cat fleas: 100
Cat fleas (C. felis) [4]; Group A: 1 mg/kg oral tablet, Day 51
  Efficacy against cat fleas: 100
Cat fleas (C. felis) [4]; Group B: 1 mg/kg subcutaneous injectable solution, Day 2
  Efficacy against cat fleas: 100
Cat fleas (C. felis) [4]; Group B: 1 mg/kg subcutaneous injectable solution, Day 9
  Efficacy against cat fleas: 100
Cat fleas (C. felis) [4]; Group B: 1 mg/kg subcutaneous injectable solution, Day 16
  Efficacy against cat fleas: 100
Cat fleas (C. felis) [4]; Group B: 1 mg/kg subcutaneous injectable solution, Day 23
  Efficacy against cat fleas: 100
Cat fleas (C. felis) [4]; Group B: 1 mg/kg subcutaneous injectable solution, Day 30
  Efficacy against cat fleas: 99.6
Cat fleas (C. felis) [4]; Group B: 1 mg/kg subcutaneous injectable solution, Day 37
  Efficacy against cat fleas: 100
Cat fleas (C. felis) [4]; Group B: 1 mg/kg subcutaneous injectable solution, Day 44
  Efficacy against cat fleas: 100
Cat fleas (C. felis) [4]; Group B: 1 mg/kg subcutaneous injectable solution, Day 51
  Efficacy against cat fleas: 100
Cat fleas (C. felis) [4]; Group B: 1 mg/kg subcutaneous injectable solution, Day 58
  Efficacy against cat fleas: 99.7
Cat fleas (C. felis) [4]; Group C: 1 mg/kg topical spot-on with absorption enhancer, Day 2
  Efficacy against cat fleas: 100
Cat fleas (C. felis) [4]; Group C: 1 mg/kg topical spot-on with absorption enhancer, Day 9
  Efficacy against cat fleas: 100
Cat fleas (C. felis) [4]; Group C: 1 mg/kg topical spot-on with absorption enhancer, Day 16
  Efficacy against cat fleas: 100
Cat fleas (C. felis) [4]; Group C: 1 mg/kg topical spot-on with absorption enhancer, Day 23
  Efficacy against cat fleas: 100
Cat fleas (C. felis) [4]; Group C: 1 mg/kg topical spot-on with absorption enhancer, Day 30
  Efficacy against cat fleas: 100
Cat fleas (C. felis) [4]; Group C: 1 mg/kg topical spot-on with absorption enhancer, Day 37
  Efficacy against cat fleas: 100
Cat fleas (C. felis) [4]; Group C: 1 mg/kg topical spot-on with absorption enhancer, Day 44
  Efficacy against cat fleas: 100
Cat fleas (C. felis) [4]; Group C: 1 mg/kg topical spot-on with absorption enhancer, Day 51
  Efficacy against cat fleas: 100
Cat fleas (C. felis) [4]; Group D: 1 mg/kg topical spot-on with absorption enhancer and spreading agent, Day 2
  Efficacy against cat fleas: 100
Cat fleas (C. felis) [4]; Group D: 1 mg/kg topical spot-on with absorption enhancer and spreading agent, Day 9
  Efficacy against cat fleas: 100
Cat fleas (C. felis) [4]; Group D: 1 mg/kg topical spot-on with absorption enhancer and spreading agent, Day 16
  Efficacy against cat fleas: 100
Cat fleas (C. felis) [4]; Group D: 1 mg/kg topical spot-on with absorption enhancer and spreading agent, Day 23
  Efficacy against cat fleas: 100
Cat fleas (C. felis) [4]; Group D: 1 mg/kg topical spot-on with absorption enhancer and spreading agent, Day 30
  Efficacy against cat fleas: 100
Cat fleas (C. felis) [4]; Group D: 1 mg/kg topical spot-on with absorption enhancer and spreading agent, Day 37
  Efficacy against cat fleas: 100
Cat fleas (C. felis) [4]; Group D: 1 mg/kg topical spot-on with absorption enhancer and spreading agent, Day 44
  Efficacy against cat fleas: 100
Cat fleas (C. felis) [4]; Group D: 1 mg/kg topical spot-on with absorption enhancer and spreading agent, Day 51
  Efficacy against cat fleas: 100
Cat fleas (C. felis) [4]; Group E: 1 mg/kg topical spot-on in ethyl lactate, Day 2
  Efficacy against cat fleas: 100
Cat fleas (C. felis) [4]; Group E: 1 mg/kg topical spot-on in ethyl lactate, Day 9
  Efficacy against cat fleas: 100
Cat fleas (C. felis) [4]; Group E: 1 mg/kg topical spot-on in ethyl lactate, Day 16
  Efficacy against cat fleas: 100
Cat fleas (C. felis) [4]; Group E: 1 mg/kg topical spot-on in ethyl lactate, Day 23
  Efficacy against cat fleas: 100
Cat fleas (C. felis) [4]; Group E: 1 mg/kg topical spot-on in ethyl lactate, Day 30
  Efficacy against cat fleas: 100
Cat fleas (C. felis) [4]; Group E: 1 mg/kg topical spot-on in ethyl lactate, Day 37
  Efficacy against cat fleas: 100
Cat fleas (C. felis) [4]; Group E: 1 mg/kg topical spot-on in ethyl lactate, Day 44
  Efficacy against cat fleas: 100
Cat fleas (C. felis) [4]; Group E: 1 mg/kg topical spot-on in ethyl lactate, Day 51
  Efficacy against cat fleas: 100
[5]
  Side effects: No side effects were observed
Cat fleas (C. felis) [6]; oral gelatin capsules 20 mg/kg
  Flea efficacy: 100%
Cat fleas (C. felis) [6]; [7]
  Flea efficacy: 100%
